In patent publication US20230212122A1, “MITOCHONDRIAL TARGETING COMPOUNDS FOR THE TREATMENT OF ASSOCIATED DISEASES” (The Regents of the University of Michigan, priority 2020, published 2023):

Experiments:
MIA PaCa-2 cells = test: MTT assay, cancer cell growth inhibition (MIA PaCa-2); type: cell-based; conditions: Homo sapiens, MIA PaCa-2, 168 h, 7 days of treatment, read-out: MiaPaCa IC50
Experimental: (§1) Measurement of cancer cell growth inhibition of the compounds of invention Cytotoxicity of the compounds was assessed by MTT assay. In brief, MIA PaCa-2 cells or BxPc3 cells were seeded in 96-well microtitre plates at density of 200 cells/well. After overnight attachment, cells were treated with compounds at indicated concentration. After 7 days of treatment, MTT solution (3 mg/ml, 20 μl) was added to each well and cells were incubated for 3 h at 37° C. After incubation, media from each well was removed and the dark blue formazan crystals formed by live cells were dissolved in DMSO ([…] per well). The absorbance intensity was measured at 570 nm on a microplate reader (Molecular Devices, Sunnyvale, Calif., USA). The half maximal inhibitory concentration (IC50) value were calculated using 4 or 6 dots curve plotted with Cumulative Gaussian equation or Log(inhibitor) vs. response equation in GraphPad Prism.

BxPc3 cells = test: MTT assay, cancer cell growth inhibition (BxPC-3); type: cell-based; conditions: Homo sapiens, BXPC-3, 168 h, 7 days of treatment
Experimental: as §1

SMILES | IC50 (MIA PaCa-2 cells) | IC50 (BxPc3 cells)
CCN(CC)S(=O)(=O)c1ccc(S(=O)(=O)N2CCC[C@@H](C(=O)N3CCOCC3)C2)cc1 [DX3-121B, (R)-N,N-diethyl-4-((3-(morpholine-4-carbonyl)piperidin-1-yl)sulfonyl)benzenesulfonamide] | 350 ± 20 nM | 
CCOC(=O)[C@@H]1CCCN(S(=O)(=O)c2ccc(S(=O)(=O)N(CC)CC)cn2)C1 [DX2-293, ethyl (R)-1-((5-(N,N-diethylsulfamoyl)pyridin-2-yl)sulfonyl)piperidine-3-carboxylate] | 1300 ± 450 nM | 1370 ± 520 nM
CCOC(=O)C12CC(CN(S(=O)(=O)c3ccc(S(=O)(=O)N(CC)CC)cc3)C1)C2 [DX3-115, ethyl 3-((4-(N,N-diethylsulfamoyl)phenyl)sulfonyl)-3-azabicyclo[3.1.1]heptane-1-carboxylate] | 1040 ± 450 nM | 1230 ± 790 nM
CCOC(=O)[C@@H]1C[C@H](O)CN(S(=O)(=O)c2ccc(S(=O)(=O)N(CC)CC)cc2)C1 (relative stereo) [DX3-14B-P1, (cis)-ethyl 1-((4-(N,N-diethylsulfamoyl)phenyl)sulfonyl)-5-hydroxypiperidine-3-carboxylate] | 1350 ± 590 nM | 3290 ± 60 nM
CCOC(=O)[C@@H]1CCCN(S(=O)(=O)c2ccc(S(=O)(=O)N(CC)CC)c(F)c2)C1 [DX2-275, ethyl (R)-1-((4-(N,N-diethylsulfamoyl)-3-fluorophenyl)sulfonyl)piperidine-3-carboxylate] | 930 ± 360 nM | 1610 ± 370 nM
CCN(CC)S(=O)(=O)c1ccc(S(=O)(=O)N2CCC[C@@H](C(=O)N[C@H]3CCN(C(=O)OC(C)(C)C)C3)C2)cc1 [DX3-119, tert-butyl (S)-3-((R)-1-((4-(N,N-diethylsulfamoyl)phenyl)sulfonyl)piperidine-3-carboxamido)pyrrolidine-1-carboxylate] | 130 ± 40 nM | 330 ± 120 nM
CCN(CC)S(=O)(=O)c1ccc(S(=O)(=O)N2CCC[C@@H](C(=O)N3CC4(CN(C(=O)OC(C)(C)C)C4)C3)C2)cc1 [DX3-120, tert-butyl (R)-6-(1-((4-(N,N-diethylsulfamoyl)phenyl)sulfonyl)piperidine-3-carbonyl)-2,6-diazaspiro[3.3]heptane-2-carboxylate] | 430 ± 180 nM | 1100 ± 160 nM
CCN(CC)S(=O)(=O)c1ccc(S(=O)(=O)N2CCC[C@@H](C(=O)NC3COC3)C2)cc1 [DX2-242, (R)-1-((4-(N,N-diethylsulfamoyl)phenyl)sulfonyl)-N-(oxetan-3-yl)piperidine-3-carboxamide] | 2340 ± 1010 nM | 13800 ± 3580 nM
CCOC(=O)[C@@H]1CCCN(S(=O)(=O)c2ccc(Oc3ccc(S(=O)(=O)N(CC)CC)cc3)cc2)C1 [DX2-230, ethyl (R)-1-((4-(4-(N,N-diethylsulfamoyl)phenoxy)phenyl)sulfonyl)piperidine-3-carboxylate] | 3920 ± 890 nM | 3880 ± 570 nM
CCN(CC)S(=O)(=O)c1ccc(S(=O)(=O)N2CCCC(F)C2)cc1 (stereo not drawn) [DX3-49B, N,N-diethyl-4-((3-fluoropiperidin-1-yl)sulfonyl)benzenesulfonamide] | 3650 ± 1680 nM | 8270 ± 2520 nM
CCN(CC)S(=O)(=O)c1ccc(S(=O)(=O)N2CCCC(S(=O)(=O)N(C)C)C2)cc1 (stereo not drawn) [DX3-39, 1-((4-(N,N-diethylsulfamoyl)phenyl)sulfonyl)-N,N-dimethylpiperidine-3-sulfonamide] | 5100 ± 1290 nM | 6300 ± 1440 nM
CCN(CC)S(=O)(=O)c1ccc(S(=O)(=O)N2CCC[C@@H](c3nc(C)no3)C2)cc1 [DX3-122B, (R)-N,N-diethyl-4-((3-(3-methyl-1,2,4-oxadiazol-5-yl)piperidin-1-yl)sulfonyl)benzenesulfonamide] | 4120 ± 1160 nM | 2860 ± 3140 nM
CCOC(=O)[C@@H]1CCCN(S(=O)(=O)c2ccc(C(=O)N(CC)CC)cc2)C1 [DX3-78B, ethyl (R)-1-((4-(diethylcarbamoyl)phenyl)sulfonyl)piperidine-3-carboxylate] | 280 nM | 620 nM
CCOC(=O)[C@@H]1CCCN(S(=O)(=O)c2ccc(S(=O)(=O)N3CCCCC3)cc2)C1 [DX2-265, ethyl (R)-1-((4-(piperidin-1-ylsulfonyl)phenyl)sulfonyl)piperidine-3-carboxylate] | 2870 ± 490 nM | 3290 ± 740 nM
CCOC(=O)C1(F)CCCN(S(=O)(=O)c2ccc(S(=O)(=O)N(CC)CC)cc2)C1 (stereo not drawn) [DX3-47, ethyl 1-((4-(N,N-diethylsulfamoyl)phenyl)sulfonyl)-3-fluoropiperidine-3-carboxylate] | 2940 ± 320 nM | 4920 ± 1940 nM
CCOC(=O)[C@H]1CCCN(S(=O)(=O)c2ccc(S(=O)(=O)N(CC)CC)cc2)C1 [DX2-202, ethyl (S)-1-((4-(N,N-diethylsulfamoyl)phenyl)sulfonyl)piperidine-3-carboxylate] | 6080 ± 760 nM | 6800 ± 2100 nM
CCOC(=O)[C@@H]1CCCN(S(=O)(=O)c2ccc(S(=N)(=O)N(CC)CC)cc2)C1 (stereo partly drawn) [DX3-90, ethyl (3R)-1-((4-(N,N-diethylsulfamidimidoyl)phenyl)sulfonyl)piperidine-3-carboxylate] | 2550 ± 150 nM | 3590 ± 1390 nM
CCOC(=O)[C@@H]1CCCN(S(=N)(=O)c2ccc(S(=O)(=O)N(CC)CC)cc2)C1 (stereo partly drawn) [DX2-225, ethyl (3R)-1-(4-(N,N-diethylsulfamoyl)phenylsulfonimidoyl)piperidine-3-carboxylate] | 12100 ± 3850 nM | 13400 ± 4580 nM
CCN(CC)S(=O)(=O)c1ccc(S(=O)(=O)N2CCC[C@@H](C(=O)N[C@@H]3CCOC3)C2)cc1 [DX3-107B, (R)-1-((4-(N,N-diethylsulfamoyl)phenyl)sulfonyl)-N-((R)-tetrahydrofuran-3-yl)piperidine-3-carboxamide] | 750 ± 80 nM | 2270 ± 610 nM
CCN(CC)S(=O)(=O)c1ccc(S(=O)(=O)N2CCC[C@@H](C(=O)N[C@@H]3CCN(C(=O)c4ccccc4)C3)C2)cc1 [DX3-125, (R)-N-((R)-1-benzoylpyrrolidin-3-yl)-1-((4-(N,N-diethylsulfamoyl)phenyl)sulfonyl)piperidine-3-carboxamide] | 940 nM | 3720 nM
CCOC(=O)C1CN(S(=O)(=O)c2ccc(S(=O)(=O)N(CC)CC)cc2)CCN1 (stereo not drawn) [DX3-44B, ethyl 4-((4-(N,N-diethylsulfamoyl)phenyl)sulfonyl)piperazine-2-carboxylate] | 4700 ± 1920 nM | 6770 ± 520 nM
CCOC(=O)c1cccc(S(=O)(=O)c2ccc(S(=O)(=O)N(CC)CC)cc2)c1 [DX3-3, ethyl 3-((4-(N,N-diethylsulfamoyl)phenyl)sulfonyl)benzoate] | 4120 ± 2440 nM | 2290 ± 700 nM
CCN(CC)S(=O)(=O)c1ccc(S(=O)(=O)N2CCC[C@@H](C(=O)OC3CC3)C2)cc1 [DX2-263, cyclopropyl (R)-1-((4-(N,N-diethylsulfamoyl)phenyl)sulfonyl)piperidine-3-carboxylate] | 300 ± 130 nM | 350 ± 60 nM
